Source: patent publication US7544703B2, “Cyclic compound having 4-pyridylalkylthio group having substituted or unsubstituted amino group introduced therein” (Santen Pharmaceutical Co., Ltd., priority 2004, dated 2009)
Counter-ions that a name gives are not always drawn.

Experiments:
B16 cells = assay: Tumor growth inhibitory action test using cancer models in mice (B16 cells); format: in vivo; conditions: C57BL/6N mouse, B16 cells intradermal; 100 mg/kg/day oral once a day, day 0 to day 10; average of 9 mice per group; read-out: Tumor tissue weight inhibition rate (%)
Experimental: A tumor growth inhibitory action test of the compounds of the present invention was performed using a tumor growth model in mice, which is one of the widely-used methods of evaluating in vivo anticancer effects of drugs.
As one of the widely-used methods of evaluating anticancer effects of drugs, a tumor growth inhibitory action test using cancer models in mice has been reported in Cancer Res., 59, 5209-5218 (1999). According to the method described in the above-mentioned document, a tumor growth inhibitory action test of the compounds of the present invention was performed, the tumor tissue weight inhibition rate was calculated, and the anticancer effect of each of the compounds of the present invention was evaluated using the obtained rate as an index.
A 1% aqueous methyl cellulose solution was added to each test compound to suspend it with a sonicator, whereby a 10 mg/mL test compound suspension was prepared.
Physiological saline was added to B16 cells, whereby a 3.3×10^7 cells/mL B16 cell suspension was prepared.
• 1) The back of each mouse (female, 6 weeks of age, C57BL/6N mouse) was depilated using a depilatory under Nembutal anesthesia. • 2) Several days after the depilation, the B16 cell suspension (300 μL) was injected intradermally into the back of the mouse under Nembutal anesthesia. • 3) From the B16 cell injection day (i.e. on day 0) to day 10, the test compound suspension (100 mg/kg/day) was orally administered once a day consecutively. • 4) Ten days after the injection of the cells, the mouse was euthanized with CO2 gas. • 5) A tumor tissue was enucleated from the mouse, and the weight of the tumor tissue was measured with an electronic balance. • 6) A test was performed in the same manner as in 1) to 5) except that the 1% aqueous methyl cellulose solution was used instead of the test compound suspension, and the result was used as a control. (Calculation of Tumor Tissue Weight Inhibition Rate)
A tumor tissue weight inhibition rate (the average of 9 mice per group), which was used as an index of anticancer effect, was calculated according to the following calculation equation. Tumor tissue weight inhibition rate (%)=100−(Mx/Mo)×100 (Calculation Equation) Mo: Tumor tissue weight of control group Mx: Tumor tissue weight of test compound solution administration group (Test Results and Discussion)

[1] = test system: HUVEC (normal human umbilical vein endothelial cells); assay: VEGF-induced HUVEC proliferation: cell proliferation inhibitory action test; format: cell-based; conditions: 72 h, 5 μL of 20 μg/mL test compound solution per well, WST-8 absorbance at 450 nm three days after VEGF addition, read-out: Cell proliferation inhibition rate (%);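 also: each well holds 100 µL cell suspension before compound addition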
Experimental: A cell proliferation inhibitory action test of the compounds of the present invention was performed using a VEGF-induced HUVEC proliferation evaluation system (HUVEC stands for normal human umbilical vein endothelial cells), which is one of the widely-used methods of evaluating in vitro angiogenesis inhibitory effects of drugs. As one of the widely-used methods of evaluating angiogenesis inhibitory effects of drugs, a cell proliferation inhibitory action test using a VEGF-induced HUVEC proliferation reaction evaluation system has been reported in Cancer Res., 59, 99-106 (1999). According to the method described in the above-mentioned document, a cell proliferation inhibitory action test of the compounds of the present invention was performed, the cell proliferation inhibition rate was calculated, and the angiogenesis inhibitory effect of each of the compounds of the present invention was evaluated using the obtained rate as an index. Each test compound was dissolved in dimethyl sulfoxide (hereinafter abbreviated as DMSO), and the obtained solution was diluted with a commercially available phosphoric acid buffer solution (hereinafter abbreviated as PBS), whereby a 20 μg/mL test compound solution was prepared. HUVEC was suspended in a 0.5% fetal bovine serum (hereinafter abbreviated as FBS)-containing F12K medium, whereby a 2×10^4 cells/mL HUVEC suspension was prepared. VEGF was dissolved in 0.1% bovine serum albumin-containing PBS, and the obtained solution was diluted with the 0.5% FBS-containing F12K medium, whereby a 400 ng/mL VEGF solution was prepared. • 1) The HUVEC suspension was inoculated in an amount of 100 μL into each well of a 96-well plate coated with type I collagen (2×10^3 cells per well). • 2) One day after the inoculation, the test compound solution was added in an amount of 5 μL per well. • 3) One hour after the addition of the test compound solution, the VEGF solution was added in an amount of 5 μL per well. • 4) Three days after the addition of the VEGF solution, WST-8 assay kit (Dojin Chemical Co., Ltd.) was added in an amount of 10 μL per well. • 5) After 3 hours, the above-mentioned plate was attached to an absorptiometer (Multilabel Counter ARVO), and an absorbance at 450 nm of each well suspension (hereinafter referred to as test compound suspension) was measured. • 6) A test was carried out in the same manner as in the above 1) to 5) except that 1.0% DMSO was used instead of the test compound solution. The result was used as a control. Incubation was carried out under conditions of 37° C., 5% carbon dioxide and […] in an incubator throughout the above-mentioned test steps. The cell proliferation inhibition rate (%), which was used as an index of an angiogenesis inhibitory effect, was calculated according to the following calculation equation. Cell proliferation inhibition rate (%)=100−{(Absorbance of test compound suspension−A)/(absorbance of control−A)}×100 (Calculation Equation) A: Absorbance of only cell suspension (cell+medium) (Test Results and Discussion)

[2] = test system: choroidal neovascularization models in rats; assay: Neovascularization incidence test using laser-induced choroidal neovascularization models in rats; format: in vivo; conditions: 168 h; Brown Norway rat, krypton laser photocoagulation; 30 mg/kg/day oral once a day for 7 days; fluorescein fundus photography on day 7; average of 3 to 4 rats and 6 to 8 eyes; read-out: Ratio of neovascularization incidence rate (% of Control)
Experimental: A neovascularization incidence test of the compounds of the present invention was performed using a choroidal neovascularization model in rats, which is one of the widely-used methods of evaluating in vivo choroidal neovascularization inhibitory effects of drugs.
As one of the widely-used methods of evaluating choroidal neovascularization inhibitory effects of drugs, a neovascularization incidence test using choroidal neovascularization models in rats was reported in Graefe's Arch. Cli. Exp. Ophthalmol., 235, 313-319 (1997). According to the method described in the above-mentioned document, a neovascularization incidence test of the compounds of the present invention was performed, the ratio of neovascularization incidence rate of each of the compounds of the present invention administration groups to a neovascularization incidence rate of vehicle administration group (control group) was calculated, and the choroidal neovascularization inhibitory effect of each of the compounds of the present invention was evaluated using the obtained ratio as an index.
A 1% aqueous methyl cellulose solution was added to each test compound to suspend it, whereby a 6 mg/10 mL test compound suspension was prepared.
• 1) A 7:1 mixed solution (1 mL/kg) of a 5% ketamine hydrochloride injection and a 2% xylazine hydrochloride injection was administered intramuscularly to rats (Brown Norway male rat, 8 weeks of age, weight: 200 to 250 g) to anesthetize them systemically. • 2) A tropicamide-phenylephrine hydrochloride ophthalmic solution (trade name: Mydrin-P) was instilled into eyes to cause mydriasis, and then photocoagulation was performed in a Bruch's membrane of each rat using a krypton laser photocoagulation apparatus.
The laser photocoagulation was performed at 8 spots per eye sparsely avoiding thick retinal vessels in a posterior section of ocular fundus and focusing on the deep layer of the retina. Photocoagulation conditions were adjusted to 100 μm of spot size, 100 mW of intensity and 0.1 sec. dulation. • 3) After the photocoagulation, the ocular fundus was photographed to confirm photocoagulation (laser irradiation) sites. (Method of Test and Method of Measurement) • 1) From the laser photocoagulation day (i.e. on day 0) to day 6, the test compound suspension (30 mg/kg/day) was administered orally once a day for 7 consecutive days. • 2) As the vehicle administration group (control group), a test was performed in the same manner as in 1) except that the 1% aqueous methyl cellulose solution was used instead of the test compound suspension, and the result was used as a control. (Method of Evaluation) • 1) On day 7 after the photocoagulation, 0.1 mL of a 10% aqueous fluorescein solution was injected into a tail vein of the rat, and fluorescein fundus photography was performed. • 2) Next, in the fluorescein fundus photography, a spot where fluorescence leak was not observed was judged as negative, and a spot where fluorescence leak was observed was judged as positive. Photocoagulation sites where a little fluorescence leak was observed were judged as positive when two such sites are present. • 3) The neovascularization incidence rate was calculated according to the calculation equation 1. The ratio of the neovascularization incidence rate of the test compound administration group to that of the vehicle administration group was calculated according to the calculation equation 2 using the neovascularization incidence rate of the respective administration groups. […]

[3] = test system: adjuvant arthritis models in rats; assay: Paw edema inhibitory action test using adjuvant arthritis models in rats; format: in vivo; conditions: 504 h; Lewis rat, adjuvant-untreated (secondary inflammation) paw, day 21; 10 mg/kg/day oral once a day, day 0 to day 20; average of 8 rats per group; read-out: Paw edema inhibition rate (%)
Experimental: A paw edema inhibitory action test of the compounds of the present invention was performed using an adjuvant arthritis model in rats, which is one of the widely-used methods of evaluating in vivo antiarthritis effects of drugs.
As one of the widely-used methods of evaluating antiarthritic effects of drugs, a paw edema inhibitory action test using adjuvant arthritis models in rats is known. Accordingly, a paw edema inhibitory action test of the compounds of the present invention was performed, the paw edema inhibition rate was calculated, and the antiarthritic effect of each of the compounds of the present invention was evaluated using the obtained rate as an index.
A 1% aqueous methyl cellulose solution was added to each test compound to suspend it, whereby a 2 mg/mL test compound suspension was prepared.
Liquid paraffin was added to Mycobacterium butyricum to suspend it, whereby 6 mg/mL adjuvant was prepared.
• 1) The adjuvant (0.1 mL) was injected subcutaneously into a left hind paw sole of each rat (male, 9 weeks of age, Lewis rat) to induce arthritis. • 2) From the adjuvant injection day (i.e. on day 0) to day 20, the test compound suspension (10 mg/kg/day) was orally administered once a day consecutively. • 3) On the adjuvant injection day, day 1, day 4, day 7, day 11, day 14, day 18 and day 21, each paw volume of both hind paws was measured with a plethysmometer. • 4) A test was performed in the same manner as in 1) to 3) except that the 1% aqueous methyl cellulose solution was used instead of the test compound suspension, and the result was used as a control. (Method of Evaluation)
Each paw edema inhibition rate of paw edema in an adjuvant-untreated paw (secondary inflammation paw) in each test compound administration group to paw edema in a secondary inflammation paw in a control group was calculated, and the antiarthritic effect of each of the compounds of the present invention was evaluated using the obtained rate as an index.
The paw edema rate was calculated according to the following calculation equation 1, and then the paw edema inhibition rate (the average of 8 rats per group), which was used as an index of the antiarthritic effect, was calculated according to the calculation equation 2. Paw edema rate (%)=(Paw volume after adjuvant treatment/paw volume before adjuvant treatment)×100 (Calculation Equation 1) Paw edema inhibition rate (%)=100−{(Sx−100)/(So−100)}×100 (Calculation Equation 2) So: Paw edema rate of control group Sx: Paw edema rate of test compound suspension administration group (Test Results and Discussion)

Structure (SMILES) | inhibition in vivo at 100 mg/kg/day (B16 cells) [%] | inhibition at 20 µg/mL (stock) [1] [%] | response vs control in vivo at 30 mg/kg/day [2] [%] | inhibition in vivo at 10 mg/kg/day [3] [%]
CC(=O)N1CCN(c2cc(CSc3ncccc3C(=O)Nc3cc(C)cc(C)c3)ccn2)CC1 [Compound 1-6, 2-[2-(4-Acetylpiperazin-1-yl)pyridin-4-ylmethylthio]-N-(3,5-dimethylphenyl)pyridine-3-carboxamide] | 42 | 100 | 38 | 
CNc1cc(CSc2ncccc2C(=O)Nc2cc(C)cc(C)c2)ccn1 [Compound 3-6, N-(3,5-Dimethylphenyl)-2-(2-methylaminopyridin-4-ylmethylthio)pyridine-3-carboxamide monohydrochloride] | 71 | 100 |  | 33
CC(=O)Nc1cc(CSc2ncccc2C(=O)Nc2cccc(C)c2)ccn1 [Compound 4-20, 2-(2-Acetylaminopyridin-4-ylmethylthio)-N-(3-methylphenyl)pyridine-3-carboxamide] | 84 |  | 22 | 
CC(=O)Nc1cc(CSc2ccsc2C(=O)Nc2cc(C)cc(C)c2)ccn1 [Compound 4-56, 3-(2-Acetylaminopyridin-4-ylmethylthio)-N-(3,5-dimethylphenyl)thiophene-2-carboxamide] | 42 | 99 |  | 
